According to patent US20230399319A1, “Acylsulfamide Compound and Pharmaceutical Use Therefor” (Japan Tobacco Inc., priority 2019, published 2023):

Biological target: NLRP3 inflammasome (Homo sapiens (Human), UniProt Q96P20)
Experiment: Evaluation of NLRP3 inflammasome inhibitory activity (inhibition of IL-1β production in THP1-Null cells, LPS/Nigericin)
Conditions: not given

NLRP3 inflammasome, sequence (Q96P20 whole entry): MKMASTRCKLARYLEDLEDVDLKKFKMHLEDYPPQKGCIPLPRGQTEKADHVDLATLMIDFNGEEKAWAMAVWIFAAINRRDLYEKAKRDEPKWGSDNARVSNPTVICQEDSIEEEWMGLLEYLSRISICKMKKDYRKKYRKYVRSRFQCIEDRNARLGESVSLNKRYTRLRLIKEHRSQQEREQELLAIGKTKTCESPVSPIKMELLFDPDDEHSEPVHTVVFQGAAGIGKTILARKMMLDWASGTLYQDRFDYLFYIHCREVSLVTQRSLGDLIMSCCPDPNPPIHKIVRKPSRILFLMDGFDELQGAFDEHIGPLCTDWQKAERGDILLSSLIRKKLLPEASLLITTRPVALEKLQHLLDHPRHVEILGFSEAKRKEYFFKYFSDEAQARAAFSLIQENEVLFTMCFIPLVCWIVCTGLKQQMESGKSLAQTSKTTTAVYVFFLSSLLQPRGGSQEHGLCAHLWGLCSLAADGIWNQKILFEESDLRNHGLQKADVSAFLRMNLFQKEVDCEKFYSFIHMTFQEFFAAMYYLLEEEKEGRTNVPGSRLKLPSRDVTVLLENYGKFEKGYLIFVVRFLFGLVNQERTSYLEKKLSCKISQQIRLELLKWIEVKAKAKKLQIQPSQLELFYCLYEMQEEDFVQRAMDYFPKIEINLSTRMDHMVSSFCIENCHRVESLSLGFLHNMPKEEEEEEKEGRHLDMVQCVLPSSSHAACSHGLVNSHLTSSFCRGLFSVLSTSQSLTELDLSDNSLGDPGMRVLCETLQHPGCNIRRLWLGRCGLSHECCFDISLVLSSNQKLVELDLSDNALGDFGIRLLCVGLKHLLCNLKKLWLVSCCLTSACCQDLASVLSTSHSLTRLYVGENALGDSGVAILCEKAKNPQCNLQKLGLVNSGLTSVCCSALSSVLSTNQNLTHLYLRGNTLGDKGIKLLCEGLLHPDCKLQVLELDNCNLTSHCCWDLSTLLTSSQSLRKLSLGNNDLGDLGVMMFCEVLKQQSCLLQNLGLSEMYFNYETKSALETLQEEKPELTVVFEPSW

SMILES | IC50 [nM]
Cc1ccc(C(F)(F)F)cc1Nc1nc(C(=O)NS(=O)(=O)N2CCOC(C)CC2)co1 (racemic) [Example 2-262] | 18
Cc1ccc(C(F)(F)F)cc1Nc1nc(C(=O)NS(=O)(=O)N2CCOCC(C#N)C2)co1 (racemic) [Example 2-127] | 130
COC(C)c1ccc(C)c(Nc2nc(C(=O)NS(=O)(=O)N(C)C)co2)c1 (racemic) [Example 2-061] | 570
Cc1ccc(C(F)(F)F)cc1Nc1nc(C(=O)NS(=O)(=O)N2CCCOC(C)C2)co1 (racemic) [Example 2-230] | 89
COC1CN(S(=O)(=O)NC(=O)c2cnc(Nc3c4c(cc5c3CCC5)CCC4)o2)C1Cl (racemic) [Example 12] | 4000
Cc1cc(C)n(C2CCCN(S(=O)(=O)NC(=O)c3coc(Nc4cc(C(F)(F)F)ccc4C)n3)CC2)n1 (racemic) [Example 2-297] | 87

Same assay, conditions: IL-1β production in THP1-Null cells, PMA/LPS primed, Nigericin 7.5 μmol/L

SMILES | IC50 [nM]
O=C(NS(=O)(=O)N1CCOC2(COC2)C1)c1coc(Nc2c3c(c(Cl)c4c2CCC4)CCC3)n1 [Example 57] | 74
O=C(NS(=O)(=O)N1C2CCC1CC2)c1coc(Nc2c3c(c(Cl)c4c2CCC4)CCC3)n1 [Example 50] | 720
O=C(NS(=O)(=O)N1CCCC1)c1cnc(Nc2c3c(cc4c2CCC4)CCC3)o1 [Example 6] | < 30
CN1CCN(S(=O)(=O)NC(=O)c2coc(Nc3c4c(c(F)c5c3CCC5)CCC4)n2)CC1=O [Example 64] | 5700
Cc1ccc2c(c1Nc1nc(C(=O)NS(=O)(=O)N3CCCC3)co1)CCC2 [Example 31] | 310
O=C(NS(=O)(=O)N1CC2CCC(C1)O2)c1coc(Nc2c3c(c(Cl)c4c2CCC4)CCC3)n1 [Example 51] | < 30
CN(C)S(=O)(=O)NC(=O)c1cnc(Nc2c3c(c(Cl)c4c2CCC4)CCC3)o1 [Example 14] | 97

Same assay, conditions: inhibition of IL-1β production in THP1-Null cells

SMILES | IC50 [nM]
COC1CCN(S(=O)(=O)NC(=O)c2coc(Nc3cc(C(F)(F)F)ccc3C)n2)CC1 [Example 2-158] | 100
Cc1ccc(C(F)F)cc1Nc1nc(C(=O)NS(=O)(=O)N2CCOC(COC(F)F)CC2)co1 (stereo not drawn) [Example 2-328] | 30
CC(C)c1cn(C(C)C)nc1Nc1nc(C(=O)NS(=O)(=O)N2CCCC2)co1 [Example 2-139] | 270
CC(C)n1cc(Nc2nc(C(=O)NS(=O)(=O)N3CCCOCC3)co2)c(C2CCC2)n1 [Example 2-196] | 2700
CC(C)c1ccc(C(F)(F)F)nc1Nc1nc(C(=O)NS(=O)(=O)N2CCCOCC2)co1 [Example 2-125] | 250
CCCS(=O)(=O)N1CCCN(S(=O)(=O)NC(=O)c2coc(Nc3cc(Cl)ccc3C)n2)CC1 [Example 2-291] | 73
CC(C)c1nn(C(C)C)cc1Nc1nc(C(=O)NS(=O)(=O)N(C)C)co1 [Example 2-089] | 1200
CCOCC1CCN(S(=O)(=O)NC(=O)c2coc(Nc3cc(C)ccc3C)n2)CCO1 (stereo not drawn) [Example 2-305] | 49
COC(=O)N1CCCN(S(=O)(=O)NC(=O)c2coc(Nc3cc(C(F)(F)F)ccc3C)n2)CC1 [Example 2-101] | 39
CCCS(=O)(=O)N1CCCN(S(=O)(=O)NC(=O)c2coc(Nc3cc(C)c(C)cc3C)n2)CC1 [Example 2-289] | 46
Cc1ccc(C2(C#N)CC2)cc1Nc1nc(C(=O)NS(=O)(=O)N2CCCOCC2)co1 [Example 2-107] | 150
CC(C)c1cn(C(C)C)nc1Nc1nc(C(=O)NS(=O)(=O)N(C)C)co1 [Example 2-117] | 110
Cc1ccc(C(F)(F)F)nc1Nc1nc(C(=O)NS(=O)(=O)N(C)C)co1 [Example 2-087] | 550
Cc1ccc(C(F)(F)F)cc1Nc1nc(C(=O)NS(=O)(=O)N2CCCNCC2)co1 [Example 2-029] | 180
Cc1ccc(C(F)(F)F)cc1Nc1nc(C(=O)NS(=O)(=O)N2CCCC(c3ncccn3)[C@@H](C)C2)co1 (stereo partly drawn) [Example 2-312] | 140

Same assay, conditions: read-out: % inhibition at 3 μM

SMILES | inhibition at 3 µM [%]
CC(C)Cc1nn(C(C)C)cc1Nc1nc(C(=O)NS(=O)(=O)N2CCCOCC2)co1 [Example 2-180] | -3

Same assay, conditions: read-out: Inhibition at 30 μM

SMILES | inhibition at 30 µM [%]
O=C(NS(=O)(=O)N1CCC2(COC2)C1)c1coc(Nc2c3c(c(Cl)c4c2CCC4)CCC3)n1 [Example 48] | 23
